Measured values reported in ChEMBL document CHEMBL1201862, “PubChem BioAssay data set” (2004).
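Values below derive from 48-hour exposures of cells grown in 96-well plates, with endpoints linearly interpolated between the two concentrations bracketing the appropriate inhibition level. GI50: concentration for 50% inhibition of growth.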 Activity calls are given as the source filed them. Rule as the data show it: active = GI50 up to about 1.1 µM and inactive = higher.

What was measured:
Test in all cases: NCI anticancer screen, dose series, 48 h
[1] = tested on: SK-MEL-28
[2] = tested on: M14
[3] = tested on: SR
[4] = tested on: NCI-H23
[5] = tested on: MOLT-4
[6] = tested on: RPMI-8226
[7] = tested on: LOX IMVI
[8] = tested on: SNB-19
[9] = tested on: UACC-257
[10] = tested on: K562
[11] = tested on: SW-620
[12] = tested on: SF-539
[13] = tested on: SK-MEL-2
[14] = tested on: KM12
[15] = tested on: NCI-H226
[16] = tested on: Malme-3M
[17] = tested on: PC-3
[18] = tested on: OVCAR-8
[19] = tested on: IGROV-1
[20] = tested on: NCI-H522

| Structure (SMILES) | GI50 [1] | GI50 [2] | GI50 [3] | GI50 [4] | GI50 [5] | GI50 [6] | GI50 [7] | GI50 [8] | GI50 [9] | GI50 [10] | GI50 [11] | GI50 [12] | GI50 [13] | GI50 [14] | GI50 [15] | GI50 [16] | GI50 [17] | GI50 [18] | GI50 [19] | GI50 [20] |
| --- | --- | --- | --- | --- | --- | --- | --- | --- | --- | --- | --- | --- | --- | --- | --- | --- | --- | --- | --- | --- |
| O=C(C/N=C(\CN(c1ccccc1)c1ccccc1)Oc1ccc(Cl)cc1Cl)n1ccnc1 | > 100 µM (inactive) | > 100 µM (inactive) | > 100 µM (inactive) | > 100 µM (inactive) | > 100 µM (inactive) | > 100 µM (inactive) | > 100 µM (inactive) | > 100 µM (inactive) | > 100 µM (inactive) | > 100 µM (inactive) | > 100 µM (inactive) | > 100 µM (inactive) | > 100 µM (inactive) | > 100 µM (inactive) | > 100 µM (inactive) | > 100 µM (inactive) | > 100 µM (inactive) | > 100 µM (inactive) | > 100 µM (inactive) |  |
| Nc1nncc2[nH]cnc12 | > 100 µM (inactive) | 35.2 µM (inactive) | > 100 µM (inactive) |  | 10.1 µM (inactive) | 14.4 µM (inactive) | 25.5 µM (inactive) | > 100 µM (inactive) | 63.5 µM (inactive) | 7.01 µM (inactive) | 31 µM (inactive) | 94.4 µM (inactive) | > 100 µM (inactive) | 44.1 µM (inactive) | > 100 µM (inactive) |  | 69 µM (inactive) | 22.5 µM (inactive) | 57.8 µM (inactive) | > 100 µM (inactive) |
| COC(=O)C1Cc2c([nH]c3ccccc23)C(c2cccc(O)c2)N1 (configuration not stated) | 28.7 µM (inactive) | 21.3 µM (inactive) | 28.2 µM (inactive) | 29.8 µM (inactive) | 31.6 µM (inactive) | 28.4 µM (inactive) | 50.7 µM (inactive) | 42.5 µM (inactive) | 90.8 µM (inactive) | 33.1 µM (inactive) | 24.3 µM (inactive) | 33.4 µM (inactive) | 27 µM (inactive) | 32.1 µM (inactive) | 40.7 µM (inactive) |  | 27.3 µM (inactive) | 32.1 µM (inactive) | 37.8 µM (inactive) | 33.6 µM (inactive) |
| c1cc(-c2ccc(-c3ccc(C4=NCCCN4)cc3)o2)ccc1C1=NCCCN1 | 25.1 µM (inactive) | 53.5 µM (inactive) | > 100 µM (inactive) | 46 µM (inactive) | > 100 µM (inactive) |  | 37.4 µM (inactive) | 52.6 µM (inactive) | 38.8 µM (inactive) | 40.6 µM (inactive) | 82.2 µM (inactive) | 87.5 µM (inactive) | > 100 µM (inactive) | 43.7 µM (inactive) | 54 µM (inactive) | 49.4 µM (inactive) | 79.1 µM (inactive) | 59.3 µM (inactive) |  | 81.3 µM (inactive) |
| CC(/C=C/c1ccccc1)=N\NC(=S)N/N=C(C)/C=C/c1ccccc1 | 15.4 µM (inactive) | 17.2 µM (inactive) | 5.93 µM (inactive) | 23.7 µM (inactive) | 5.93 µM (inactive) |  | 11 µM (inactive) | 23.2 µM (inactive) | 20.8 µM (inactive) | 4.86 µM (inactive) | 15.8 µM (inactive) | 21.1 µM (inactive) | 10.9 µM (inactive) |  | 21 µM (inactive) | 10 µM (inactive) | 23.9 µM (inactive) | 17.5 µM (inactive) | 13.4 µM (inactive) | 25.3 µM (inactive) |
| CN(C)CCCNC(=O)N/N=C/c1ccc(O)cc1 | > 100 µM (inactive) | > 100 µM (inactive) | > 100 µM (inactive) | > 100 µM (inactive) | > 100 µM (inactive) |  |  | > 100 µM (inactive) | > 100 µM (inactive) | > 100 µM (inactive) | > 100 µM (inactive) | > 100 µM (inactive) | > 100 µM (inactive) | > 100 µM (inactive) | > 100 µM (inactive) | > 100 µM (inactive) | > 100 µM (inactive) | > 100 µM (inactive) | > 100 µM (inactive) | > 100 µM (inactive) |
| CC1(C(O)c2ccccc2)CN(C(C)(C)C)C(=O)/C1=C\Sc1ccccc1 (configuration not stated) | > 100 µM (inactive) | 51.3 µM (inactive) | 30.3 µM (inactive) | > 100 µM (inactive) | 19.2 µM (inactive) | 9.95 µM (inactive) | 14.1 µM (inactive) | > 100 µM (inactive) | 24.9 µM (inactive) | 42.1 µM (inactive) | 46.8 µM (inactive) | > 100 µM (inactive) | 21.3 µM (inactive) | 31.8 µM (inactive) |  |  | 17.3 µM (inactive) | 28.2 µM (inactive) | 33.3 µM (inactive) | 2.48 µM (inactive) |
| Cc1c[nH]c(C(=O)O)c1-c1ccc2c(-c3ccccc3)nc3ccccc3n12 | 31.4 µM (inactive) | 31.7 µM (inactive) | 33 µM (inactive) | 35.4 µM (inactive) | 34.2 µM (inactive) |  | 27.1 µM (inactive) |  | 30.8 µM (inactive) | 41.5 µM (inactive) | 41.2 µM (inactive) | 19.5 µM (inactive) | 20.7 µM (inactive) | 20 µM (inactive) | 20.3 µM (inactive) |  | 27.4 µM (inactive) | 22.6 µM (inactive) | 22.9 µM (inactive) | 20.9 µM (inactive) |
| CN1CCCCCC(=N\O)/C(=N/O)CCCCC1 | > 100 µM (inactive) | > 100 µM (inactive) | > 100 µM (inactive) | > 100 µM (inactive) | > 100 µM (inactive) |  | > 100 µM (inactive) | > 100 µM (inactive) | > 100 µM (inactive) | > 100 µM (inactive) | > 100 µM (inactive) | > 100 µM (inactive) |  | > 100 µM (inactive) | > 100 µM (inactive) | > 100 µM (inactive) | > 100 µM (inactive) | > 100 µM (inactive) | > 100 µM (inactive) | > 100 µM (inactive) |
| COc1ccc(SCc2cc(OCc3ccccc3)c(OCc3ccccc3)c(OCc3ccccc3)c2)cc1 | 2.07 µM (inactive) | 1.92 µM (inactive) | 0.493 µM (active) | 1.75 µM (inactive) | 1.56 µM (inactive) | 2.84 µM (inactive) | 1.54 µM (inactive) | 1.72 µM (inactive) | 1.71 µM (inactive) | 1.21 µM (inactive) | 1.7 µM (inactive) | 1.93 µM (inactive) |  | 1.64 µM (inactive) | 1.9 µM (inactive) | 1.83 µM (inactive) | 1.92 µM (inactive) | 1.78 µM (inactive) | 1.79 µM (inactive) | 1.83 µM (inactive) |
| COc1ccc(CC(O)CN2CCOCC2)cc1 (configuration not stated) | > 100 µM (inactive) | > 100 µM (inactive) | > 100 µM (inactive) | > 100 µM (inactive) | > 100 µM (inactive) |  | > 100 µM (inactive) | > 100 µM (inactive) | > 100 µM (inactive) | > 100 µM (inactive) | > 100 µM (inactive) |  | > 100 µM (inactive) | > 100 µM (inactive) | > 100 µM (inactive) | > 100 µM (inactive) | > 100 µM (inactive) | > 100 µM (inactive) | > 100 µM (inactive) | > 100 µM (inactive) |
| CCOC(=O)C1(Cc2ccccc2)Cc2ccccc2C1=O (configuration not stated) | 24.8 µM (inactive) | 16.6 µM (inactive) | 22 µM (inactive) | 17.3 µM (inactive) | 19.6 µM (inactive) | 20.4 µM (inactive) | 24.1 µM (inactive) |  | > 10 µM (inactive) | 24 µM (inactive) | 33.7 µM (inactive) | 35.1 µM (inactive) | 14.8 µM (inactive) | 26.6 µM (inactive) | 19.7 µM (inactive) | 18.7 µM (inactive) | 17.6 µM (inactive) | 28.8 µM (inactive) | 35.2 µM (inactive) |  |
| COc1cccc2c1C(=O)c1c(O)c3c(c(O)c1C2=O)CC(O)(C(O)CO)CC3OC1CC(N2CCOCC2)C(O)C(C)O1 (configuration not stated) | 0.00406 µM (active) | 0.00295 µM (active) | 0.00214 µM (active) | 0.00464 µM (active) |  | 0.00378 µM (active) |  | 0.00404 µM (active) | 0.00338 µM (active) | 0.00412 µM (active) | 0.00144 µM (active) | 0.0043 µM (active) | 0.00422 µM (active) | 0.00551 µM (active) | 0.0118 µM (active) | 0.00251 µM (active) | 0.0123 µM (active) | 0.00182 µM (active) | 0.00279 µM (active) | 0.00273 µM (active) |
| Cc1cc(-c2nc3c(O)cccc3s2)ccc1N | 57.9 µM (inactive) | 16.7 µM (inactive) | 25.5 µM (inactive) | 26.9 µM (inactive) | 25.4 µM (inactive) | 45 µM (inactive) | 17.3 µM (inactive) | 15.3 µM (inactive) | 20.3 µM (inactive) | 39.2 µM (inactive) | 41.4 µM (inactive) | 47.9 µM (inactive) | 22.7 µM (inactive) | 23.3 µM (inactive) | 31.6 µM (inactive) |  | 21.2 µM (inactive) | 20 µM (inactive) | 17 µM (inactive) | 17.2 µM (inactive) |
| NS(=O)(=O)c1ccc(CNc2nc(-c3cccs3)nc3ccc(I)cc23)cc1 | 21.3 µM (inactive) | 15.1 µM (inactive) | 15 µM (inactive) | 17.9 µM (inactive) | 21.9 µM (inactive) | 18.6 µM (inactive) | 14.8 µM (inactive) | 17.4 µM (inactive) |  |  | 31.5 µM (inactive) | 11.2 µM (inactive) |  | 8.57 µM (inactive) | 17.9 µM (inactive) | 14.7 µM (inactive) | 19.4 µM (inactive) | 18.4 µM (inactive) | 12.2 µM (inactive) | 14.7 µM (inactive) |
